Measurements as given in ChEMBL document CHEMBL1146610, “Improved gelatinase a selectivity by novel zinc binding groups containing galardin derivatives” (Bioorg Med Chem Lett, 2003).

Legend:
Interstitial collagenase = target: T1, Interstitial collagenase (Homo sapiens, UniProt P03956); experiment: Inhibition of matrix metalloprotease-1
T1 sequence (P03956 whole entry): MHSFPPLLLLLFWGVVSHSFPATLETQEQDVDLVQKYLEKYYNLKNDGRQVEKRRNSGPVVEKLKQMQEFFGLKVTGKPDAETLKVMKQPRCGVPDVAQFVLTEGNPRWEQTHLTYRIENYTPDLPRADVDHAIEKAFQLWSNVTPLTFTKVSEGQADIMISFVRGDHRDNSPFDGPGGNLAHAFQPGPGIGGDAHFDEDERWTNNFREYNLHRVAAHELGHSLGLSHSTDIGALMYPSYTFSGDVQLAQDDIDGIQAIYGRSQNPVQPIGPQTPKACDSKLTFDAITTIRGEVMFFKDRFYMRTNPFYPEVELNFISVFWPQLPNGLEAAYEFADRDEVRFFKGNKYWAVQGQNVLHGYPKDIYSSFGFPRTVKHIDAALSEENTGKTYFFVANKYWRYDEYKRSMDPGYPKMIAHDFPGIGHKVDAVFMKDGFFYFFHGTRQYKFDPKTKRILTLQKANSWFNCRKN

[1] = target: 72 kDa type IV collagenase (Homo sapiens, UniProt P08253); experiment: Inhibition of Matrix metalloprotease-2
Sequence of 72 kDa type IV collagenase (P08253 whole entry): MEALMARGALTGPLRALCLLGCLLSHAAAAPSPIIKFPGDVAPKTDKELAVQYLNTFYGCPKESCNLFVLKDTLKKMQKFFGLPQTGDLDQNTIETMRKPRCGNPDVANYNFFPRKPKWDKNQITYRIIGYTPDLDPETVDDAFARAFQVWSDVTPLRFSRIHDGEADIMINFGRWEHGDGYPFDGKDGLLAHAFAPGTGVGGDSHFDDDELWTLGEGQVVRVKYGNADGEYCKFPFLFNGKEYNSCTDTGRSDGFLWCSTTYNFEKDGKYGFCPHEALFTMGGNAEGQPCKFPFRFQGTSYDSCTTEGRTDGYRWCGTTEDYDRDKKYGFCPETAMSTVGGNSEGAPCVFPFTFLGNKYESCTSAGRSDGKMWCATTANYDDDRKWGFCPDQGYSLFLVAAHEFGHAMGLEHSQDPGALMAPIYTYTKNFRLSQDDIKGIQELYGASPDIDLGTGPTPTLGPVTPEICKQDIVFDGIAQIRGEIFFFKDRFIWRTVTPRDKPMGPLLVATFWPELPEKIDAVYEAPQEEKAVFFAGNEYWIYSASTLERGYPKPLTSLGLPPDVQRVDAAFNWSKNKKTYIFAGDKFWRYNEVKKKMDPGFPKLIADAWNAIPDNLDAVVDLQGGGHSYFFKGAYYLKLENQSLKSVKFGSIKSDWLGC

For `CNC(=O)[C@H](Cc1c[nH]c2ccccc12)NC(=O)[C@@H](CC(=O)c1ccc[nH]1)CC(C)C`, the IC50 (Interstitial collagenase) was 860 nM and the IC50 [1] was 540 nM.
`CNC(=O)[C@H](Cc1c[nH]c2ccccc12)NC(=O)[C@@H](CC(=O)c1ccccn1)CC(C)C` showed an IC50 (Interstitial collagenase) of 730 nM and an IC50 [1] of 180 nM.
For `CNC(=O)C(Cc1c[nH]c2ccccc12)NC(=O)[C@@H](CC(=O)Nc1ccccn1)CC(C)C` (stereo partly specified), the IC50 (Interstitial collagenase) was 60 nM and the IC50 [1] was 50 nM.
In the case of `CNC(=O)C(Cc1c[nH]c2ccccc12)NC(=O)[C@@H](CC(=O)O)CC(C)C` (stereo partly specified), the IC50 [1] is reported as 20 nM.
`CNC(=O)C(Cc1c[nH]c2ccccc12)NC(=O)[C@@H](CC(=O)NNS(=O)(=O)c1ccc(C)cc1)CC(C)C` (stereo partly specified) gave an IC50 (Interstitial collagenase) of over 10000 nM and an IC50 [1] of 30 nM.
Work on `CNC(=O)C(Cc1c[nH]c2ccccc12)NC(=O)[C@@H](CC(=O)NN)CC(C)C` (stereo partly specified) yielded an IC50 (Interstitial collagenase) of 50 nM and an IC50 [1] of 550 nM.
